“Also recorded” adds a separate entry of the source. *1 amine or outer side, *2 acyl side, *3 side chain or, on linkers, in order; H or OH if unused. Where a SMILES comes first, the peptide text is derived from it. Bridges are numbered along the chain shown (N, C = ends). Roman numbers before positions name the chains, in order. Where no end group is shown, it is not given here. [ ]: non-standard residue; d: D form. Actinocin(9to1) = Cc1c2oc3c(C)ccc(C(=O)[*:1])c3nc-2c(C(=O)[*:2])c(N)c1=O; NMeV = CN[C@H](C(=O)O)C(C)C; Sar = CNCC(=O)O

The test system of assay [1] is Gpr162 mRNA. More on the design: method as in PMID 24937127. As to conditions: streptozotocin-treated rats; cited from earlier work.
Assay [2] deals with PC12 cells. More on the design: method as in PMID 21855138. As to conditions: cited from earlier work. The text has this: However, much earlier, a fragment of the CART peptide was identified in extracts of sheep hypothalamus.[2] CART was later found to be expressed also in pancreatic islet cells and in nerve fibers innervating the islets.[3]^,[4]^,[5] […] Among them is the effect of CART on islet hormone secretion fr ...

In assay [3] the test system is KATO III cells. To be noted: KATOIII cells; cited from earlier work. The source says:
When studying neuropathic pain, Yosten et al.[11] found GPR160 to be necessary for CARTp-mediated cell activation in cell culture. […] Information on GPR160 is scarce, but it has been reported to be a potential marker for prostate cancer,[24] where it is involved in apoptosis and cell-cycle arrest.[25] […] Recently, the notion of GPR160 being the ...

Assay [4] has as its system CART receptor. As to conditions: cited from earlier work. The source says:
However, much earlier, a fragment of the CART peptide was identified in extracts of sheep hypothalamus.[2] CART was later found to be expressed also in pancreatic islet cells and in nerve fibers innervating the islets.[3]^,[4]^,[5] […] Since then, multiple biological effects of CART have been established.[4]^,[7] Among them is the effect of CART on islet hormone secretion fr ...

Assay [5] has as its system INS-1 832/13 cells. As to the kind of experiment: Radioactive binding of 125I-CARTp55-102 to INS-1 832/13 cells. More on the design: species or system rat. The protocol:
^125I was incorporated into the meta-position of tyrosine side chains of CARTp55-102 using oxidative iodination. 20 μL of a 300 mM phosphate buffer (pH 7.4) was used to resuspend 1 nmol of the CARTp55-102 peptide, after which 0.4 mCi ^125I (NEZ033A, PerkinElmer, Waltham, MA) was added. A volume of 30 μL 3 mg/mL Chloramine-T in phosphate buffer was added gradually while stirring over 6 min, and the reaction was quenched by adding 400 μL H2O with 0.1% trifluoroacetic acid (TFA). The radiolabeled peptide was purified by reversed-phase HPLC on a C18 column and […]. Elution fractions of 1 mL were collected and it was determined where the radiolabeled peptide eluted by measuring γ radiation intensity on a PerkinElmer 2470 Automatic Gamma Counter (PerkinElmer).
INS-1 cells were seeded to 24-well plates and transfected with Gpr162 siRNA (or control siRNA). Two days after transfection cells were assayed for competition binding for 3 h at 4°C using 10–15 p.m. ^125I CARTp55-102 or unlabeled CARTp55-102 in 0.4 mL of 50 mM HEPES buffer (pH7.4 supplemented with 1 mM CaCl2, 5 mM MgCl2 and 0.5% (w/v) bovine serum albumin). After incubation cells were washed two times in binding buffer supplemented with 0.5 M NaCl at 4°C. Non-specific binding was determined as the binding in the presence of 0.1μM unlabeled CARTp55-102.

`CN(N=O)C(=O)N[C@H]1C(O)O[C@H](CO)[C@@H](O)[C@@H]1O` (mixture of isomers) [streptozotocin]: in assay [1], the “Gpr162 mRNA expression, brain” value was “increased”; the “Gpr162 mRNA expression, right ventricle of the heart and kidney” value is recorded as “reduced Gpr162 mRNA expression”. As for `Cc1c2oc3c(C)ccc(C(=O)N[C@@H]4C(=O)N[C@H](C(C)C)C(=O)N5CCC[C@H]5C(=O)N(C)CC(=O)N(C)[C@@H](C(C)C)C(=O)O[C@@H]4C)c3nc-2c(C(=O)N[C@@H]2C(=O)N[C@H](C(C)C)C(=O)N3CCC[C@H]3C(=O)N(C)CC(=O)N(C)[C@@H](C(C)C)C(=O)O[C@@H]2C)c(N)c1=O` [actinomycin D] (I: T[dV]P[Sar][NMeV] / II: T[dV]P[Sar][NMeV]; ester I:1-I:C, II:1-II:C; linker I:N-II:N via Actinocin(9to1)), the “Effect on (radiolabeled) CART binding” value in assay [2] is reported as “inhibited”.

In the case of `C[C@@H]1C[C@@H]([C@H](O)CC2CC(=O)NC(=O)C2)C(=O)[C@@H](C)C1` [cycloheximide], the “Effect on (radiolabeled) CART binding” value in assay [2] was “inhibited”. In the case of C-peptide, the “Effect of GPR160 on C-peptide-induced cFOS expression” value in assay [3] was “GPR160 has no effect on C-peptide-induced cFOS expression”. “PACAP6-38: CART receptor antagonist (FTDSYSRYRKQMAVKKYLAAVLGKRYKQRVKNK; ends and bridges not checked; UniProt P18509 137-169, looked up, fragment)”: the CART receptor antagonism result in assay [4] was “acts as a CART receptor antagonist”. As to “^125I-CARTp55-102: ^125I was incorporated into the meta-position of tyrosine side chains of CARTp55-102 using oxidative iodination (IPIYEKKYGQVPMCDAGEQCAVRKGARIGKLCDCPRGTSCNSFLLKCL; ends and bridges not checked; also: 125I in meta-position of tyrosine side chains)”, in assay [5] (Gpr162 KD vs negative control, 3 h at 4°C, 2 days after transfection, n = 3, p < 0.05), the “Binding of 125I-CARTp55-102 after Gpr162 siRNA/KD” value is listed as “binds to a lower extent to Gpr162 KD INS-1 832/13 cells; also recorded: the degree of binding was lower in cells treated with Gpr162 siRNA”. The “Binding of 125I-CARTp55-102 to cells” value in assay [5] (competition binding 3 h at 4°C, 50 mM HEPES pH7.4, non-specific with 0.1μM unlabeled CARTp55-102, n = 3) is “binds to INS-1 832/13 cells”. Take pertussis toxin: the “CARTp-mediated phosphorylation of ERK” value in assay [4] is “inhibited”.

Regarding “radiolabeled CART peptide: radiolabeled CART of cited earlier studies in AtT20 and PC12 cells (IPIYEKKYGQVPMCDAGEQCAVRKGARIGKLCDCPRGTSCNSFLLKCL; ends and bridges not checked; also: 125I in meta-position of tyrosine side chains)”, the “Specific binding in PC12 cells” value in assay [2] is “high-affinity-specific binding in PC12 cells”.

Values taken from article PMC10709007, “GPR162 is a beta cell CART receptor” (iScience, 2023).
